Measurements taken from ChEMBL document CHEMBL5042489, “Inhibitors of the Hippo Pathway Kinases STK3/MST2 and STK4/MST1 Have Utility for the Treatment of Acute Myeloid Leukemia” (J Med Chem, 2022).
Active and inactive are the calls of the source. No cut-off for these calls is given here.

Assays:
[1] = Drug concentration in C57BL/6 mouse liver at 10 mg/kg, ip administered for 3 hrs; type: ADME, organism-based; settings: read-out: Ct
[2] = Half life in C57BL/6 mouse at 10 mg/kg, ip measured upto 24 hrs by LC-MS/MS analysis; type: ADME, organism-based; settings: in vivo
Mus musculus = assay: In vivo inhibition of STK3/4 in C57BL/6 mouse assessed as decrease in Thr35phosphorylated-MOB1 protein level in liver at 10 mg/kg, ip administered for 1 hr by Western blotting analysis; type: functional, organism-based
[3] = target: T1, Serine/threonine-protein kinase 3 (Homo sapiens, UniProt Q13188)
T1 sequence (Q13188 whole entry): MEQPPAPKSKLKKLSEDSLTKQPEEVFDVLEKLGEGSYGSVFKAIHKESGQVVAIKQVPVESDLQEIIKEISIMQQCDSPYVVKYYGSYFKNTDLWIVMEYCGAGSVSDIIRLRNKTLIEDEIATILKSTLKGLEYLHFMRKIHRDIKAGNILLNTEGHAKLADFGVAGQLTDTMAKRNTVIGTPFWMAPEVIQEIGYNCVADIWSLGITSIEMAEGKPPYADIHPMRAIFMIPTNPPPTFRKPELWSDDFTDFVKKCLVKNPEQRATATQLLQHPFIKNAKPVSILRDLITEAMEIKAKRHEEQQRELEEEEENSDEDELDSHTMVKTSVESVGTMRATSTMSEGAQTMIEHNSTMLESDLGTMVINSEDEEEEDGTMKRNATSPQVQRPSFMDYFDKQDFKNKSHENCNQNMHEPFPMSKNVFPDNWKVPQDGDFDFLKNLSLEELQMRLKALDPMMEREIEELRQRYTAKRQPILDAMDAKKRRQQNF

[4] = Tmax in C57BL/6 mouse at 10 mg/kg, ip measured upto 24 hrs by LC-MS/MS analysis; type: ADME, organism-based; settings: in vivo
[5] = target: T2, Serine/threonine-protein kinase 4 (Homo sapiens) (UniProt Q13043); settings: dose 20.0 µM
T2 sequence (whole entry): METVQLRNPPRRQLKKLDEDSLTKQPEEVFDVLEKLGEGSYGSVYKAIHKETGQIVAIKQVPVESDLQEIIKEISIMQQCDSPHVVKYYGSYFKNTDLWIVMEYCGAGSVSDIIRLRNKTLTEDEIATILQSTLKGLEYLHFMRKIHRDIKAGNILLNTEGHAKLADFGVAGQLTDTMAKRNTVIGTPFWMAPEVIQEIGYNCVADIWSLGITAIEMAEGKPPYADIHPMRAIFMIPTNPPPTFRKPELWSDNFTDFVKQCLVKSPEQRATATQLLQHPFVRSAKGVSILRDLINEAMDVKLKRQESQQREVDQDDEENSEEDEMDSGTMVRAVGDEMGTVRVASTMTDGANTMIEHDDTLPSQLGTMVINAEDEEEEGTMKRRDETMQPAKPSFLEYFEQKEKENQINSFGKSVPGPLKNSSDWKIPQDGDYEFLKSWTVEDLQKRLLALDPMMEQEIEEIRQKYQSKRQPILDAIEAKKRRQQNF
Description: Inhibition of recombinant N-terminal His6-tagged human STK4 (43 to 431 residues) expressed in Escherichia coli assessed as melting temperature at 20 uM by thermal shift assay (Rvb = 55 degreeC)

[6] = Cmax in C57BL/6 mouse at 10 mg/kg, ip measured upto 24 hrs by LC-MS/MS analysis; type: ADME, organism-based; design: route intraperitoneal, dose 10 mg/kg, time <=24; settings: in vivo
[7] = target: T3, Serine/threonine-protein kinase 3 (Homo sapiens) (UniProt Q13188); assay: Inhibition of STK3 in HEK293 cells assessed as increase in YAP/TAZ-TEAD activity at 10 uM incubated for 48 hrs by Dual-Glo luciferase assay; type: cell-based
T3 sequence (whole entry): T1 sequence (Q13188 whole entry)

[8] = target: T1, Serine/threonine-protein kinase 3; remark: listed apart in the source
Description: Displacement of K5 tracer from full length C-terminal NanoLuc fused human STK3 expressed in HEK293T cells incubated for 2 hrs by NanoBRET assay

[9] = Drug concentration in C57BL/6 mouse liver at 10 mg/kg, ip administered for 1 hr; type: ADME, organism-based; settings: read-out: Ct
[10] = Drug concentration in C57BL/6 mouse plasma at 20 mg/kg, ip measured after 30 mins by LC-MS/MS analysis; type: ADME, organism-based
[11] = Drug concentration in C57BL/6 mouse liver at 10 mg/kg, ip administered for 2 hrs; type: ADME, organism-based; settings: read-out: Ct
[12] = target: Leucine-rich repeat serine/threonine-protein kinase 2 (Homo sapiens, UniProt Q5S007); assay: Displacement of K5 tracer from full length C-terminal NanoLuc fused human LRRK2 expressed in HEK293T cells incubated for 2 hrs by NanoBRET assay; type: cell-based
[13] = AUC (0 to t) in C57BL/6 mouse at 10 mg/kg, ip measured upto 24 hrs by LC-MS/MS analysis; type: ADME, organism-based; design: dose 10 mg/kg, time <=24; settings: in vivo
SKNO-1 = assay: Antiproliferation activity against human SKNO-1 cells incubated for 72 hrs by celltiter-glo assay; type: functional, cell-based
[14] = target: Protein kinase C theta type (Homo sapiens) (UniProt Q04759); assay: Inhibition of wild type partial length human PRKCQ (L350 to S706 residues) expressed in bacterial expression system by KdELECT assay
[15] = target: T4, Serine/threonine-protein kinase RIO3 (Homo sapiens) (UniProt O14730); assay: Inhibition of wild type full length human RIOK3 (M1 to E519 residues) expressed in bacterial expression system by KdELECT assay
T4 sequence (whole entry): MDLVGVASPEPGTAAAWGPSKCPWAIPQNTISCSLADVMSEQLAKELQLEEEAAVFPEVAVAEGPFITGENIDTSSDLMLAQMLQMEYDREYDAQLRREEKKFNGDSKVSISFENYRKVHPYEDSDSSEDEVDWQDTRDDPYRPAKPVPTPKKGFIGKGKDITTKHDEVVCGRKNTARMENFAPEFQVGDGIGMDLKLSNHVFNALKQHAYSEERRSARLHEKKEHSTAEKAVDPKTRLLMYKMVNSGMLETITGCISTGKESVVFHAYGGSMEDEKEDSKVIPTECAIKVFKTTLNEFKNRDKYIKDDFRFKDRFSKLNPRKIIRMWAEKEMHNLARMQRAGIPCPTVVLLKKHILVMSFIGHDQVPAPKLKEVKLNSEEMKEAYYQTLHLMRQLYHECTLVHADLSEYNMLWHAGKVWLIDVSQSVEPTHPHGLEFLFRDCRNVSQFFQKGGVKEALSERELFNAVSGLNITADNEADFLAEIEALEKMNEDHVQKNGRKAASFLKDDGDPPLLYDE

[16] = Inhibition of MOB1 phosphorylation in human MOLM-13 cells assessed as decrease in pMOB1 activity preincubated for 4 hrs followed by H2O2 addition for 2 hrs by Western blotting analysis; type: cell-based
[17] = target: T5, Serine/threonine-protein kinase 4 (Homo sapiens, UniProt Q13043)
T5 sequence (Q13043 whole entry): T2 sequence (whole entry)

THP-1 = assay: Antiproliferation activity against human THP-1 cells incubated for 72 hrs by celltiter-glo assay; type: functional, cell-based
[18] = target: BMP-2-inducible protein kinase (Homo sapiens) (UniProt Q9NSY1); assay: Inhibition of BMP2K (unknown origin) by NanoBRET intracellular kinase assay; type: cell-based; settings: time 2.0 hrs
MV4-11 = assay: Antiproliferation activity against human MV4-11 cells incubated for 72 hrs by celltiter-glo assay; type: functional, cell-based
[19] = target: T3, Serine/threonine-protein kinase 3 (Homo sapiens); assay: Inhibition of STK3 (unknown origin) by KdELECT assay
OCI-AML-3 = assay: Antiproliferation activity against human OCI-AML-3 cells incubated for 72 hrs by celltiter-glo assay; type: functional, cell-based
MOLM-13 [20] = assay: Antiproliferation activity against human MOLM-13 cells incubated for 72 hrs by celltiter-glo assay; type: functional, cell-based
Kasumi 1 = assay: Antiproliferation activity against human Kasumi 1 cells incubated for 72 hrs by celltiter-glo assay; type: functional, cell-based
[21] = target: T5, Serine/threonine-protein kinase 4; remark: listed apart in the source
Description: Displacement of K5 tracer from full length C-terminal NanoLuc fused human STK4 expressed in HEK293T cells incubated for 2 hrs by NanoBRET assay

[22] = target: T6, Serine/threonine-protein kinase STK11 (Homo sapiens) (UniProt Q15831); assay: Inhibition of LKB1 (unknown origin) by NanoBRET intracellular kinase assay; type: cell-based; settings: time 2.0 hrs
T6 sequence (whole entry): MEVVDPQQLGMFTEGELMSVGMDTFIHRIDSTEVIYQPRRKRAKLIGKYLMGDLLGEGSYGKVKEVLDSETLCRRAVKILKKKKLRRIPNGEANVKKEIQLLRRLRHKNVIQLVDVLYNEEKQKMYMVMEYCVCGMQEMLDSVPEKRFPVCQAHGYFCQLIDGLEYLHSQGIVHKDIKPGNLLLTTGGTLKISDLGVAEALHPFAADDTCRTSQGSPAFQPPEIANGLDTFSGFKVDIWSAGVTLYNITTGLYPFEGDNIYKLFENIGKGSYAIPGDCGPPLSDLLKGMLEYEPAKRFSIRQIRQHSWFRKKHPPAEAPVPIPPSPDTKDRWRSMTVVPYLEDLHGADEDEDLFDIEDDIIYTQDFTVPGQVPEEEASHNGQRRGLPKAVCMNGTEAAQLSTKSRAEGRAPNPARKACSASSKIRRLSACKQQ

[23] = Permeability in human Caco-2 cells; type: ADME, cell-based
[24] = target: T3, Serine/threonine-protein kinase 3 (Homo sapiens); assay: Inhibition of recombinant N-terminal His6-tagged human STK3 (18 to 311 residues) expressed in Escherichia coli assessed as melting temperature at 20 uM by thermal shift assay
[25] = Kinetic solubility of compound in PBS at pH 7.4; type: physicochemical; settings: buffer
MOLM-13 [26] = assay: Inhibition of MOB1 phosphorylation in human MOLM-13 cells assessed as decrease in pMOB1 activity at 1 uM preincubated for 4 hrs followed by H2O2 addition for 2 hrs by Western blotting analysis; type: cell-based; settings: time 6.0 hrs

Leucine-rich repeat serine/threonine-protein kinase 2, sequence (Q5S007 whole entry, the tested form may be a part): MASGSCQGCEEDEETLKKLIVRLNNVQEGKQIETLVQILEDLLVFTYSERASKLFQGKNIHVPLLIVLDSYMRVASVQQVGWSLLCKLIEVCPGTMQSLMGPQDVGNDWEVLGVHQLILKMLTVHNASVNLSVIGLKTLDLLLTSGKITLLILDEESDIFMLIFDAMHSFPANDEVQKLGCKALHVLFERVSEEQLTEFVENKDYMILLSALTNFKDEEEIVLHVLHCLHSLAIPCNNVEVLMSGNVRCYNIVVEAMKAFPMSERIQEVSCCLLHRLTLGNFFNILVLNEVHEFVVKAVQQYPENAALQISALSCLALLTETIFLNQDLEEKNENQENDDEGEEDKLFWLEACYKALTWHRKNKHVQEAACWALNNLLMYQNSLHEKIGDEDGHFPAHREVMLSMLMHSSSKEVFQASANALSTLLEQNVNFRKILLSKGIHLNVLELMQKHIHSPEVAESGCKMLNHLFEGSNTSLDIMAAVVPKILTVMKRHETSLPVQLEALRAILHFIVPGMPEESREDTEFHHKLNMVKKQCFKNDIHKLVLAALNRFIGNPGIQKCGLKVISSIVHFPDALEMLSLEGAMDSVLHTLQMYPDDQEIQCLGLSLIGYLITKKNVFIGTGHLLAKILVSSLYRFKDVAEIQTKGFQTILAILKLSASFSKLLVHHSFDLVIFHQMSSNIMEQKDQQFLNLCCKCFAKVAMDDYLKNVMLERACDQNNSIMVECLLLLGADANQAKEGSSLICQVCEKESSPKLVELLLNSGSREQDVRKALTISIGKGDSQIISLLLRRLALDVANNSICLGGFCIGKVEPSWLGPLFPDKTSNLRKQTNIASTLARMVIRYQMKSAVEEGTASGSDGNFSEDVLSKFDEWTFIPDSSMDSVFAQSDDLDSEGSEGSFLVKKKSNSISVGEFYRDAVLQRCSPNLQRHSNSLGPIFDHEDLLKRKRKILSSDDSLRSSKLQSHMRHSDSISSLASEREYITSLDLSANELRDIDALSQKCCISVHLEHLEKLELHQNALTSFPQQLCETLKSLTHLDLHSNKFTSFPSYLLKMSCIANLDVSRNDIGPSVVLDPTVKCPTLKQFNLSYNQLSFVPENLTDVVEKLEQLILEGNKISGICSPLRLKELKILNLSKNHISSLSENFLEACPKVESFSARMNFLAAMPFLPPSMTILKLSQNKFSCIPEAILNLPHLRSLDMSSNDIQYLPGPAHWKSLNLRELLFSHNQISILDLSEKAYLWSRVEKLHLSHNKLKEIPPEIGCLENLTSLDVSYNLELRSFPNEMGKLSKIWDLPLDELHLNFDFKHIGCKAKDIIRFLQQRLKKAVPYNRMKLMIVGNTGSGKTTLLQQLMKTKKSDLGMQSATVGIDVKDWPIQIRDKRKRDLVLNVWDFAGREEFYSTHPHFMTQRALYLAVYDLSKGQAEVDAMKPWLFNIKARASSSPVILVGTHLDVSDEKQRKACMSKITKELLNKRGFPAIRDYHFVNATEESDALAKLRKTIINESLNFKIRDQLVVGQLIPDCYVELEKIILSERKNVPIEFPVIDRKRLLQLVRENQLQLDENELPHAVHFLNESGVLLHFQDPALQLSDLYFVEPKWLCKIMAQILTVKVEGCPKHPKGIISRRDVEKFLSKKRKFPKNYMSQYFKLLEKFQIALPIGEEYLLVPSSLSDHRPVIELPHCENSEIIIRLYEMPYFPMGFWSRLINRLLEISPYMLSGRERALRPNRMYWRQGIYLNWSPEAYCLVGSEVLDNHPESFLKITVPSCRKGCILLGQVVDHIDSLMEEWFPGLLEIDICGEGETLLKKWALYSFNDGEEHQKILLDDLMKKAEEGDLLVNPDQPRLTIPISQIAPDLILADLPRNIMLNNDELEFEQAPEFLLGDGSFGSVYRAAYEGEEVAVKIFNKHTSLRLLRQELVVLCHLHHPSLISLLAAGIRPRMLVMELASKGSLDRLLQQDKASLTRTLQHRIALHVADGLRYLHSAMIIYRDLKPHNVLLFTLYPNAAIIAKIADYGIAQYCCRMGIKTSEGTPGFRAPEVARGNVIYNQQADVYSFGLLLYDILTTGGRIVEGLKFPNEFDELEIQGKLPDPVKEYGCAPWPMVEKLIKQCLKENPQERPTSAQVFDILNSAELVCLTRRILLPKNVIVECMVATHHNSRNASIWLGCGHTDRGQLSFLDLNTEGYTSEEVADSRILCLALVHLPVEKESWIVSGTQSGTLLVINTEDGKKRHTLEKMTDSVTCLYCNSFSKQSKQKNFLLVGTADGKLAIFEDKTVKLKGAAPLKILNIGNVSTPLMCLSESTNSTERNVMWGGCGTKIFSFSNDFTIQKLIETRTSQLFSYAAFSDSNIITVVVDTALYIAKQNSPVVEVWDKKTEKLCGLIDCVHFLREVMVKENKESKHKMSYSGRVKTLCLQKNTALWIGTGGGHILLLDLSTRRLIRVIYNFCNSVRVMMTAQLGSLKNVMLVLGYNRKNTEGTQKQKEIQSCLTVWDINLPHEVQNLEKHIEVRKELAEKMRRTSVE
BMP-2-inducible protein kinase (Homo sapiens), sequence (Q9NSY1 whole entry, looked up): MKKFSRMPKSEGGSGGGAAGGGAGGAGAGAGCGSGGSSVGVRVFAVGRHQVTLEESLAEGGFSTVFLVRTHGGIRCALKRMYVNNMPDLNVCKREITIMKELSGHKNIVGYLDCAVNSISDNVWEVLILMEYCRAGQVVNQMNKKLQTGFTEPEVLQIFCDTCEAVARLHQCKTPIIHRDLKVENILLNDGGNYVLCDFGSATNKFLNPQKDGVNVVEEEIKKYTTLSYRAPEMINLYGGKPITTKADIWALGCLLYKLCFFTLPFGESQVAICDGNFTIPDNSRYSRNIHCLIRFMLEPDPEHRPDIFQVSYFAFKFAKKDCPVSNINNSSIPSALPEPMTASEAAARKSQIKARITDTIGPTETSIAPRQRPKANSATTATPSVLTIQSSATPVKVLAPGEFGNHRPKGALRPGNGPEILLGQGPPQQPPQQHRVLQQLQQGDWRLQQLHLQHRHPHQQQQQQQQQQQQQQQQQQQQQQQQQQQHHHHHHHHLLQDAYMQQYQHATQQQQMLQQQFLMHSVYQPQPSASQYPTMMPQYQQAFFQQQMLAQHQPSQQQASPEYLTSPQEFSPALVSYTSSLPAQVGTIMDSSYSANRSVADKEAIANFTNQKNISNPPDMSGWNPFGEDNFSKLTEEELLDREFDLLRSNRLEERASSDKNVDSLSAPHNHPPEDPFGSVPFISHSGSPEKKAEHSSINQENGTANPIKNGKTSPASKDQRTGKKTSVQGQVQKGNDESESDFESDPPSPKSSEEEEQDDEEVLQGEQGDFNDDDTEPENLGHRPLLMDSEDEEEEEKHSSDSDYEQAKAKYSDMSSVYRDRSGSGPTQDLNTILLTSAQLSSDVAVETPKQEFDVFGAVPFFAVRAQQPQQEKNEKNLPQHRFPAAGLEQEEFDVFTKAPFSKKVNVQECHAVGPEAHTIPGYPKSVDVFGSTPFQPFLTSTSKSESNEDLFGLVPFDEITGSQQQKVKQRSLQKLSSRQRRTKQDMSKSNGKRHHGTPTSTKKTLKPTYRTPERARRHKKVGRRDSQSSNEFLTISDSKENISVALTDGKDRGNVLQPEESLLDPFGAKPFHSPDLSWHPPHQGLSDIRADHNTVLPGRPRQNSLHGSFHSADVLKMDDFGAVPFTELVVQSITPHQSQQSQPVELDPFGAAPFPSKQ
Protein kinase C theta type (Homo sapiens), sequence (Q04759 whole entry, looked up, the tested form may be a part): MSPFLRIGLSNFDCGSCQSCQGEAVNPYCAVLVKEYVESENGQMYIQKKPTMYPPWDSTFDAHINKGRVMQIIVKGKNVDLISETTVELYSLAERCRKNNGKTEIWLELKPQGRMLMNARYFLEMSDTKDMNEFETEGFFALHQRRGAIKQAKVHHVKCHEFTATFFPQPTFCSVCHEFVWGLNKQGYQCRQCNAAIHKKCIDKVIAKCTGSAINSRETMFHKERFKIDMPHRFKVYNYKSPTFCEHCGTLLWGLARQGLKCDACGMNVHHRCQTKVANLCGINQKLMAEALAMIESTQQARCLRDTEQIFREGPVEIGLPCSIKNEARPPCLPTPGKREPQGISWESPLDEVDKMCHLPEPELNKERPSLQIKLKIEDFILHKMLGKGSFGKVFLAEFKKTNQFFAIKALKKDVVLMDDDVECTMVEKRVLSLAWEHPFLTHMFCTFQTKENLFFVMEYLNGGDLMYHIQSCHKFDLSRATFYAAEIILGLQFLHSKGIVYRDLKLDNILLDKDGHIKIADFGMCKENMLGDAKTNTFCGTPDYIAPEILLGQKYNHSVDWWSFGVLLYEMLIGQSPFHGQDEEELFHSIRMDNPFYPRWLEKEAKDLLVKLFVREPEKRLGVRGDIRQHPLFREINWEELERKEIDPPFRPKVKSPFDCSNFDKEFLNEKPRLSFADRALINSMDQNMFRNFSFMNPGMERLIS

Row | SMILES | t1/2 [2] | inhibition (Mus musculus) | IC50 [3] | Tmax [4] | Cmax [6] | inhibition [7] | IC50 [8] | concentration at 0.5 h [10] | IC50 [12] | AUCt [13] | Activity (SKNO-1) | inhibition [14] | inhibition [15] | IC50 [17] | Activity (THP-1) | inhibition [18] | inhibition [19] | Activity (OCI-AML-3) | Activity (Kasumi 1) | IC50 [21] | further results
1 | NC(=O)c1cccc(-c2c[nH]c3ncnc(N4CCOCC4)c23)c1 | 42 min | Active | 233 nM | 30 min | 11.9 µM | Active | 303 nM | 15.9 µM | 2360 nM | 9.5 µM·h | – | – | – | – | – | – | – | – | – | – | concentration at 3 h [1]: 1.2 µM; Tm [5]: 63.3 °C; concentration at 1 h [9]: 28 µM; concentration at 2 h [11]: 2.5 µM
2 | CC(=O)NC1CCN(c2ncnc3[nH]cc(-c4cccc(Cl)c4)c23)CC1 | 318 min | Active | 36 nM | 15 min | 11.8 µM | – | 139 nM | – | 1390 nM | 8.1 µM·h | Dose-Dependent Effect | Active | Active | 26 nM | Dose-Dependent Effect | inactive | Active | Dose-Dependent Effect | Dose-Dependent Effect | 122 nM | IC50 [16]: 413 nM; IC50 (MV4-11; MV4-11, 72 h): 3700 nM; IC50 (MOLM-13 [20]; MOLM-13, 72 h): 5800 nM; inhibition [22]: inactive
3 | OC1CCN(c2ncnc3[nH]cc(-c4cccc(Cl)c4)c23)CC1 | 594 min | Active | 127 nM | 15 min | 5.8 µM | Active | 433 nM | 11.6 µM | 1340 nM | 4.3 µM·h | Dose-Dependent Effect | Active | Active | 80 nM | Dose-Dependent Effect | inactive | Active | Dose-Dependent Effect | Dose-Dependent Effect | 250 nM | permeability [23]: Permeable; ΔTm [24]: > 5.2 °C; Activity (MV4-11): Dose-Dependent Effect; Kinetic_solubility [25]: 189 µM; Activity (MOLM-13 [20]): Dose-Dependent Effect; inhibition (MOLM-13 [26]): Active; inhibition [22]: inactive
